Assay results as given in patent publication US11840686B2, “Modulation of prekallikrein (PKK) expression” (Ionis Pharmaceuticals, Inc., priority 2013, dated 2023).
Strand notation (5' to 3'): a small letter for the sugar, then the base; units joined by * are phosphorothioate-linked, units joined directly phosphodiester-linked; [ ] holds rarer units or linkages, { } end groups; capitals alone tell only the bases. e = 2'-O-(2-methoxyethyl) (MOE); [5mC] = 5-methylcytosine; d = 2'-deoxy (DNA)

What was measured:
human PKK mRNA [1] = test: Antisense inhibition of human PKK mRNA in HepaRG cells, 5,000 nM (Example 2); type: cell-based
Summary of the method: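 HepaRG cells, 20,000 per well, were electroporated with 5,000 nM MOE gapmer (phosphorothioate, 5-methylcytosine) and incubated about 24 hours. PKK mRNA was quantified by qRT-PCR with primer probe set RTS3454, normalized to RIBOGREEN total RNA, and expressed as percent inhibition versus untreated controls.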

human PKK mRNA [2] = test: Dose-dependent antisense inhibition of human PKK in HepaRG cells, 0.19-5.00 uM (Example 5); type: cell-based; details: HepaRG cells
Summary of the method: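 HepaRG cells (20,000/well) were electroporated with antisense oligonucleotide at 0.19, 0.56, 1.67 and 5.00 μM and treated for about 16 hours. PKK mRNA was quantified by qRT-PCR with primer probe set RTS3454, normalised to RIBOGREEN total RNA, and IC50 was derived per oligonucleotide.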

[3] = human PKK mRNA in HepaRG cells, 5-10-5 gapmers, Table 14
[4] = electroporation, approximately 16 hours, Table 35
[5] = electroporation, approximately 16 hours, Table 40
[6] = electroporation, approximately 16 hours, Table 38
[7] = 4 point dose response, Table 38
[8] = electroporation, approximately 16 hours, Table 36
[9] = 4 point dose response, Table 36
[10] = electroporation, approximately 16 hours, Table 37
[11] = Table 13, human PKK mRNA in HepaRG cells, 5-10-5 gapmers

547602 (antisense eT*e[5mC]*eA*e[5mC]*eT*dG*dT*dA*d[5mC]*d[5mC]*dT*dA*dT*dA*dA*e[5mC]*eT*e[5mC]*eT*eA) [compound 547602]
% inhibition (human PKK mRNA [1]; [3]): 93% | percent inhibition of PKK at 0.19 μM (human PKK mRNA [2]; [4]): 18% | percent inhibition of PKK at 0.56 μM (human PKK mRNA [2]; [4]): 53% | percent inhibition of PKK at 1.67 μM (human PKK mRNA [2]; [4]): 92% | percent inhibition of PKK at 5.00 μM (human PKK mRNA [2]; [4]): 87% | percent inhibition of PKK at 5.00 μM (human PKK mRNA [2]; electroporation, approximately 16 hours, Table 41): 93% | percent inhibition of PKK at 0.19 0μM (human PKK mRNA [2]; 0.19 0μM, electroporation, approximately 16 hours, Table 41): 1% | percent inhibition of PKK at 0.56 0μM (human PKK mRNA [2]; 0.56 0μM, electroporation, approximately 16 hours, Table 41): 9% | percent inhibition of PKK at 1.67 1μM (human PKK mRNA [2]; 1.67 1μM, electroporation, approximately 16 hours, Table 41): 52% | IC50 (human PKK mRNA [2]; 4 point dose response, Table 35): 500 nM | IC50 (human PKK mRNA [2]; 4 point dose response, Table 41): 1400 nM

547288 (antisense e[5mC]*eA*eT*eA*eG*dA*dG*dT*dT*dG*dA*dG*dT*d[5mC]*dA*eG*eA*e[5mC]*eA*eT) [compound 547288]
% inhibition (human PKK mRNA [1]; HepaRG cells, electroporation with 5,000 nM antisense oligonucleotide, approximately 24 hours, PKK mRNA by RT-PCR (RTS3454), relative to untreated control cells, Table 5 experiment): 80% | percent inhibition of PKK at 0.19 μM (human PKK mRNA [2]; [5]): 0% | percent inhibition of PKK at 0.56 μM (human PKK mRNA [2]; [5]): 0% | percent inhibition of PKK at 1.67 μM (human PKK mRNA [2]; [5]): 0% | percent inhibition of PKK at 5.00 μM (human PKK mRNA [2]; [5]): 38% | IC50 (human PKK mRNA [2]; 4 point dose response, Table 40): > 5000 nM

546358 (antisense e[5mC]*eT*eG*eA*eG*d[5mC]*dT*dT*dT*dT*d[5mC]*d[5mC]*dA*dT*d[5mC]*eA*e[5mC]*eT*eG*e[5mC]) [compound 546358]
% inhibition (human PKK mRNA [1]; HepaRG cells, electroporation, 5,000 nM antisense oligonucleotide, approx. 24 hours, primer probe set RTS3454, relative to untreated control cells, Table 11): 83% | percent inhibition of PKK at 0.19 μM (human PKK mRNA [2]; [6]): 0% | percent inhibition of PKK at 0.56 μM (human PKK mRNA [2]; [6]): 19% | percent inhibition of PKK at 1.67 μM (human PKK mRNA [2]; [6]): 71% | percent inhibition of PKK at 5.00 μM (human PKK mRNA [2]; [6]): 80% | IC50 (human PKK mRNA [2]; [7]): 1300 nM

547426 (eG*eA*eG*eT*eA*dA*d[5mC]*d[5mC]*dA*dG*dA*dG*d[5mC]*dT*d[5mC]*e[5mC]*e[5mC]*eT*eT*eG; antisense) [compound 547426]
% inhibition (human PKK mRNA [1]; Table 8, HepaRG cells, electroporation with 5,000 nM antisense oligonucleotide, approx. 24 hours, PKK mRNA by RT-PCR (RTS3454), relative to untreated control cells): 92% | percent inhibition of PKK at 0.19 μM (human PKK mRNA [2]; [8]): 19% | percent inhibition of PKK at 0.56 μM (human PKK mRNA [2]; [8]): 50% | percent inhibition of PKK at 1.67 μM (human PKK mRNA [2]; [8]): 84% | percent inhibition of PKK at 5.00 μM (human PKK mRNA [2]; [8]): 93% | IC50 (human PKK mRNA [2]; [9]): 600 nM | percent inhibition of PKK mRNA, 0.19 μM (human PKK mRNA [2]; 0.19 μM antisense oligonucleotide): 18% | percent inhibition of PKK mRNA, 0.56 μM (human PKK mRNA [2]; 0.56 μM antisense oligonucleotide): 35% | percent inhibition of PKK mRNA, 1.67 μM (human PKK mRNA [2]; 1.67 μM antisense oligonucleotide): 80% | percent inhibition of PKK mRNA, 5.00 μM (human PKK mRNA [2]; 5.00 μM antisense oligonucleotide): 95% | IC50 (human PKK mRNA [2]; 0.19-5.00 μM): 700 nM

546877 (e[5mC]*eA*e[5mC]*eT*eG*dT*d[5mC]*d[5mC]*dT*dA*dT*dA*dT*d[5mC]*dA*e[5mC]*eT*eG*eT*eA; antisense) [compound 546877]
% inhibition (human PKK mRNA [1]; [3]): 88% | percent inhibition of PKK at 0.19 μM (human PKK mRNA [2]; [10]): 0% | percent inhibition of PKK at 0.56 μM (human PKK mRNA [2]; [10]): 19% | percent inhibition of PKK at 1.67 μM (human PKK mRNA [2]; [10]): 75% | percent inhibition of PKK at 5.00 μM (human PKK mRNA [2]; [10]): 80% | IC50 (human PKK mRNA [2]; 4 point dose response, Table 37): 1300 nM

546834 (eA*eA*e[5mC]*eT*e[5mC]*dT*dA*dA*d[5mC]*dA*dG*dT*dA*dT*d[5mC]*eA*e[5mC]*eT*eG*eT; antisense) [compound 546834]
% inhibition (human PKK mRNA [1]; [11]): 86% | percent inhibition of PKK at 0.19 μM (human PKK mRNA [2]; [6]): 1% | percent inhibition of PKK at 0.56 μM (human PKK mRNA [2]; [6]): 0% | percent inhibition of PKK at 1.67 μM (human PKK mRNA [2]; [6]): 30% | percent inhibition of PKK at 5.00 μM (human PKK mRNA [2]; [6]): 83% | IC50 (human PKK mRNA [2]; [7]): 2300 nM

546833 (eA*e[5mC]*eT*e[5mC]*eT*dA*dA*d[5mC]*dA*dG*dT*dA*dT*d[5mC]*dA*e[5mC]*eT*eG*eT*eA; antisense) [compound 546833]
% inhibition (human PKK mRNA [1]; [11]): 90% | percent inhibition of PKK at 0.19 μM (human PKK mRNA [2]; [8]): 8% | percent inhibition of PKK at 0.56 μM (human PKK mRNA [2]; [8]): 33% | percent inhibition of PKK at 1.67 μM (human PKK mRNA [2]; [8]): 74% | percent inhibition of PKK at 5.00 μM (human PKK mRNA [2]; [8]): 94% | IC50 (human PKK mRNA [2]; [9]): 900 nM
